From US20120172386A1, “Combinations Comprising a VEGF Receptor Inhibitor” (NOVARTIS AG, priority 2005, published 2012)

Assays:
VEGF-R2 (KDR) = VEGF-R2 (KDR) (Homo sapiens, UniProt P35968); test: Inhibition of the tyrosine kinase activity of VEGF-R2 (KDR); format: biochemical
Description: Inhibition of the Tyrosine Kinase Activity of VEGF-R2 (KDR)
The inhibition test is carried out as described above.

[1] = Percutaneous penetration/permeation in static Franz-type diffusion cells with split-thickness human cadaver skin; format: in vitro ADME; details: solution a (propylene glycol); batch of skin 4
Description: Frozen human dorsal cadaver skin (Caucasian; back skin) was obtained from the National Disease Research Interchange, Philadelphia, USA. Skin from three different donors was used;
Thawed skin samples were dermatomed to 0.7 mm with an Aesculap dermatome to obtain “split-thickness” skin.
Percutaneous penetration was studied in vitro by means of static Franz-type diffusion cells with phosphate buffered saline/fetal calf serum 2:1 as receptor fluid at 32° in triplicates for 48 hours. The compounds were applied as 1% solutions (300 μl each) in propylene glycol (solution a) or in propylene glycol/oleyl alcohol 9:1 (solution b). Samples of 100 μl were taken 5 to 7 times and replaced by fresh receptor fluid as described previously (Schmook, et al., Skin Pharmacol. 1993, 6:116-124).
Drug analysis was performed with specimens of the exposed skin (at the end of the 48 hours experiment), from which the stratum corneum had been removed by 20 strippings with an adhesive tape. The weighed skin samples were homogenized in 0.2 M ammonium phosphate buffer (pH 7.0). The homogenates were extracted with ethyl acetate and processed as described (Schmook, et al 1993).

[2] = as above; format: in vitro ADME; details: batch of skin 4
[3] = solution c (propylene glycol containing 0.1% DMSO)
[4] = solution d (propylene glycol containing 1% DMSO)

Sequence of VEGF-R2 (KDR) (P35968 20-1356, species assumed): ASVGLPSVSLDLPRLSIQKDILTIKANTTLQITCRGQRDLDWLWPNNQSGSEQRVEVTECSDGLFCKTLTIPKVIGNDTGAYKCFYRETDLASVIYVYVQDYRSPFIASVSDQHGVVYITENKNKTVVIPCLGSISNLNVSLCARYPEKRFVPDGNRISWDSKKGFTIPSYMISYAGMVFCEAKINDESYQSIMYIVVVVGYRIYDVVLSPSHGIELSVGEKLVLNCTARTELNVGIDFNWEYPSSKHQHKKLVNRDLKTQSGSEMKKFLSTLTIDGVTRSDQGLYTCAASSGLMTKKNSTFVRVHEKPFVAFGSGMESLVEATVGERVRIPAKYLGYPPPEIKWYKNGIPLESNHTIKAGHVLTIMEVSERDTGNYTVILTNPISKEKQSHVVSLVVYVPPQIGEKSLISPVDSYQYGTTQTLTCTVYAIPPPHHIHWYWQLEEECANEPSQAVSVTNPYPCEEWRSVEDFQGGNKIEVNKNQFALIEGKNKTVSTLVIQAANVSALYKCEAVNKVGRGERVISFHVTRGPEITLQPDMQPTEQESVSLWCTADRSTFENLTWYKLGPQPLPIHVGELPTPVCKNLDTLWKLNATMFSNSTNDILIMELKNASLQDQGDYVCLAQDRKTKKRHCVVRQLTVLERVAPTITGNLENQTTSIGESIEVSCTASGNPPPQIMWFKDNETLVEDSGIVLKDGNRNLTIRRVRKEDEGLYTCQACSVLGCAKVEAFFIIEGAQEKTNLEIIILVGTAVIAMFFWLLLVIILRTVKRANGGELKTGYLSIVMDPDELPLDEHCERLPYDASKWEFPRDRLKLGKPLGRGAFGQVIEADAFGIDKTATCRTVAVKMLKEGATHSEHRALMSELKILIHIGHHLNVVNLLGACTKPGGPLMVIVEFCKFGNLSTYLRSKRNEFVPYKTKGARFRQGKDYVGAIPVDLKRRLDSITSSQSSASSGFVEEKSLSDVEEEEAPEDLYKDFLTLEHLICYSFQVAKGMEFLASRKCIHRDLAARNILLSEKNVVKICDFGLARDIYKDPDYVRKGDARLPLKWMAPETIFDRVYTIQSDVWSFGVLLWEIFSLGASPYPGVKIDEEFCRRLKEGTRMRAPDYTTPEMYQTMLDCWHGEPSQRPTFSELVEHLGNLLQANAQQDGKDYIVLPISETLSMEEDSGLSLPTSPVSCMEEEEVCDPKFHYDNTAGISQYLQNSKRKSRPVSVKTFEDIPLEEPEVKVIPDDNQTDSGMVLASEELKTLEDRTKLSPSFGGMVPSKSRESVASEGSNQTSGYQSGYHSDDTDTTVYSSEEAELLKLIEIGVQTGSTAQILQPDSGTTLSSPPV

Row | Structure (SMILES) | IC50 (VEGF-R2 (KDR)) | melting point | also measured
1 | Cc1ccc(NC(=O)N2CCOc3cc(Oc4ccnc(N)n4)ccc32)cc1C(F)(F)F [12f), 7-(2-amino-pyrimidin-4-yloxy)-2,3-dihydro-benzo[1,4]oxazine-4-carboxylic acid (4-methyl-3-trifluoromethyl-phenyl)-amide] | 0.017 µM |  | 
2 | Nc1nccc(Oc2ccc3c(C(=O)Nc4ccc(C(F)(F)F)cc4)cccc3c2)n1 [17a)] | 0.019 µM |  | 
3 | CC(C)(C)c1ccc(NC(=O)c2cccc3cc(Oc4ccnc(N)n4)ccc23)cc1 [17b)] | 0.054 µM |  | 
4 | CNc1cc(Oc2ccc3c(c2)OCCN3C(=O)Nc2ccc(C)c(C(F)(F)F)c2)ncn1 [Example 8, 7-(6-Methylamino-pyrimidin-4-yloxy)-2,3-dihydro-benzo[1,4]oxazine-4-carboxylic acid (4-methyl-3-trifluoromethyl-phenyl)-amide] | 0.046 µM | 180 to 182 °C | 
5 | CNc1cc(Oc2ccc3c(c2)OCCN3C(=O)Nc2cccc(C(F)(F)F)c2)ncn1 [Example 9, 7-(6-Methylamino-pyrimidin-4-yloxy)-2,3-dihydro-benzo[1,4]oxazine-4-carboxylic acid (3-trifluoromethyl-phenyl)-amide] | 0.029 µM | 180 °C | 
6 | Nc1nccc(Oc2ccc3c(c2)OCCN3C(=O)Nc2cccc(C(F)(F)F)c2)n1 [Example 10, 7-(2-Amino-pyrimidin-4-yloxy)-2,3-dihydro-benzo[1,4]oxazine-4-carboxylic acid (3-trifluoromethyl-phenyl)-amide] | 0.037 µM | 161 to 163 °C | 
7 | Cc1ccc(NC(=O)c2cccc3cc(Oc4ccnc(N)n4)ccc23)cc1C(F)(F)F [Example 15, 6-(2-Amino-pyrimidin-4-yloxy)-naphthalene-1-carboxylic acid (4-methyl-3-trifluoromethyl-phenyl)-amide] | 0.02 µM |  | 
8 | CC(=O)Nc1nccc(Oc2ccc3c(C(=O)Nc4cccc(C(F)(F)F)c4)cccc3c2)n1 [Example 18, 6-(2-Acetylamino-pyrimidin-4-yloxy)-naphthalene-1-carboxylic acid (3-trifluoromethyl-phenyl)-amide] | 0.021 µM | 216 to 217 °C | 
9 | CC(=O)Nc1nccc(Oc2ccc3c(c2)OCCN3C(=O)Nc2ccc(C)c(C(F)(F)F)c2)n1 [Example 20, 7-(2-Acetylamino-pyrimidin-4-yloxy)-2,3-dihydro-benzo[1,4]oxazine-4-carboxylic acid (4-methyl-3-trifluoromethyl-phenyl)-amide] | 0.024 µM |  | 
10 | COC(=O)Nc1nccc(Oc2ccc3c(c2)OCCN3C(=O)Nc2ccc(C)c(C(F)(F)F)c2)n1 [Example 21, 7-(2-Methoxycarbonylamino-pyrimidin-4-yloxy)-2,3-dihydro-benzo[1,4]oxazine-4-carboxylic acid (4-methyl-3-trifluoromethyl-phenyl)-amide] | 0.019 µM |  | 
11 | CN1CCN(Cc2ccc(NC(=O)N3CCOc4cc(Oc5ccnc(N)n5)ccc43)cc2C(F)(F)F)CC1 [Example 22, 7-(2-Amino-pyrimidin-4-yloxy)-2,3-dihydro-benzo[1,4]oxazine-4-carboxylic acid [4-(4-methyl-piperazin-1-ylmethyl)-3-trifluoromethyl-phenyl]-amide] | 0.096 µM |  | 
12 | Nc1nccc(Oc2ccc3c(C(=O)Nc4cccc(C(F)(F)F)c4)cccc3c2)n1 [formula Ip] |  |  | Permeation rate [1]: <2 ng/mL/h; Skin concentration [1]: 6.2 ± 1.5 µg/g; Permeation rate [2, 3]: <2 ng/mL/h; Skin concentration [2, 3]: 4.4 ± 3.1 µg/g; Permeation rate [2, 4]: <2 ng/mL/h; Skin concentration [2, 4]: 4.7 ± 2.9 µg/g
